Assay results taken from publication PMC4319531 (Bioorganic & medicinal chemistry letters, 2014).

What was measured:
[1] = microsomes
[2] = Metabolic stability in human intestinal microsomes; conditions: both, pooled human intestinal microsomes, pH 7.4
[3] = Metabolic stability in human liver microsomes; conditions: both, pooled human liver microsomes, pH 7.4
recombinant CE-1 = biological target: T1, recombinant CE-1 (Homo sapiens, UniProt P23141); assay: Incubation with purified recombinant CE-1; type: in vitro ADME; conditions: 10 μM, within 60 minutes at room temperature
T1 sequence (P23141 18-567): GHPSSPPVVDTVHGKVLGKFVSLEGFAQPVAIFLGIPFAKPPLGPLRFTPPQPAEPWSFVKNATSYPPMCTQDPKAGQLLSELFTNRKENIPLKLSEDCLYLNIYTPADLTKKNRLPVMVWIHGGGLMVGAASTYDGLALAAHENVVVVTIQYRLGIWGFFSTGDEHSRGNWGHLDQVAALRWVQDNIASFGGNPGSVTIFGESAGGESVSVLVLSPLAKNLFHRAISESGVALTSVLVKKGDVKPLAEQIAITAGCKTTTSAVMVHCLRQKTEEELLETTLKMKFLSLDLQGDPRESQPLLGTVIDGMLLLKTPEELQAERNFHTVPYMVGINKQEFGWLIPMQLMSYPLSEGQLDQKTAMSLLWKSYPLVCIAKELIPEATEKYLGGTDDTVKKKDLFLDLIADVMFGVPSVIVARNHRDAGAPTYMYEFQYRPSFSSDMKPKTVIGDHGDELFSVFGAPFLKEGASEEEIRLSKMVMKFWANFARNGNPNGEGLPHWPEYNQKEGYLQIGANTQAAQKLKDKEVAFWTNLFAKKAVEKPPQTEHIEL

recombinant CE-2 = biological target: T2, recombinant CE-2 (Homo sapiens, UniProt O00748); assay: Incubation with purified recombinant CE-2; type: in vitro ADME; conditions: 10 μM, within 60 minutes at room temperature
T2 sequence (O00748 27-559): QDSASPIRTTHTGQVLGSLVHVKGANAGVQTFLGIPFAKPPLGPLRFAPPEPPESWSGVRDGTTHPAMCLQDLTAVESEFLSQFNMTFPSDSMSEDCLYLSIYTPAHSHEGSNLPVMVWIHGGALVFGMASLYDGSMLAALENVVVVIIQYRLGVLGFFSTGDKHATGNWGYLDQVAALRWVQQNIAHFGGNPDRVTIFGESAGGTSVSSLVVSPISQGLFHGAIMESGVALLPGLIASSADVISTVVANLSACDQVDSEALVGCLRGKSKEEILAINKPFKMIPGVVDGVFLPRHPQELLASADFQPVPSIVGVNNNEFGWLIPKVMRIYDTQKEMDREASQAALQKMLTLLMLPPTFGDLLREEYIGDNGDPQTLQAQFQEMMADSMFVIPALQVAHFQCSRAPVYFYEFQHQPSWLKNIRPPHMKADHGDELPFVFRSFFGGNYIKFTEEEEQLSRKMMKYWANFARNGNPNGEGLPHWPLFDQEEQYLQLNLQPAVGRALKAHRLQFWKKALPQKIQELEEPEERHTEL

Row | Compound | microsomal CLint at 1 μM [2] [µL/min/mg] | sensitivity to hydrolysis by recombinant CE-1 (recombinant CE-1) | sensitivity to hydrolysis by recombinant CE-2 (recombinant CE-2) | also measured
1 | 2-(4-(4((benzyl(2methyl3(methylsulfonamido)phenyl)amino)methyl)phenoxy)phenoxy)ethyl 2-isobutyl-5-((methoxycarbonyl)amino)pentanoate [Compound 8b] |  |  |  | CLint, in vitro HIM (microsomes): 220 µL/min/mg; half life (t1/2, min) HIM (pH 7.4): 6.3 min; half life (t1/2, min) HLM ([1]; human, pH 7.4): 17 min; CLint, in vitro HLM [1]: 82 µL/min/mg
2 | COC(=O)NCCCC(C)C(=O)Oc1ccc(Oc2ccc(CN(Cc3ccccc3)c3cccc(NS(C)(=O)=O)c3C)cc2)cc1 (stereo not drawn) [Compound 8a, 4-(4-((benzyl(2-methyl-3-(methylsulfonamido)phenyl)amino)methyl)phenoxy)phenyl 5-((methoxycarbonyl)amino)-2-methylpentanoate] | 2600 |  |  | microsomal CLint at 1 μM [3]: 1000 µL/min/mg
3 | C#CCC(CCCNC(=O)OC)C(=O)Oc1ccc(Oc2ccc(CN(Cc3ccccc3)c3cccc(NS(C)(=O)=O)c3C)cc2)cc1 (stereo not drawn) [Compound 8c] | 1700 |  |  | 
4 | COC(=O)NCCCC(Cc1ccccc1)C(=O)Oc1ccc(Oc2ccc(CN(Cc3ccccc3)c3cccc(NS(C)(=O)=O)c3C)cc2)cc1 (stereo not drawn) [Compound 8d] | 140 |  |  | 
5 | COC(=O)NCCCC(C)(C)C(=O)Oc1ccc(Oc2ccc(CN(Cc3ccccc3)c3cccc(NS(C)(=O)=O)c3C)cc2)cc1 [Compound 8e, 4-(4-((benzyl(2-methyl-3-(methylsulfonamido)phenyl)amino)methyl)phenoxy)phenyl 5-((methoxycarbonyl)amino)-2,2-dimethylpentanoate] | 1000 |  |  | 
6 | COC(=O)NCCCC(C)(Cc1ccccc1)C(=O)Oc1ccc(Oc2ccc(CN(Cc3ccccc3)c3cccc(NS(C)(=O)=O)c3C)cc2)cc1 (stereo not drawn) [Compound 8f] | 43 | completely resistant | moderate to extensive hydrolysis | 
7 | COC(=O)NCCCC(Cc1cn(Cc2ccccc2)nn1)C(=O)Oc1ccc(Oc2ccc(CN(Cc3ccccc3)c3cccc(NS(C)(=O)=O)c3C)cc2)cc1 (stereo not drawn) [Compound 8g, 4-(4-((benzyl(2-methyl-3-(methylsulfonamido)phenyl)amino)methyl)phenoxy)phenyl 2-((1-benzyl-1H-1,2,3-triazol-4-yl)methyl)-5-((methoxycarbonyl)amino)pentanoate] | 480 | completely resistant | moderate to extensive hydrolysis | microsomal CLint at 1 μM [3]: 140 µL/min/mg
8 | C#CCC(CCCNC(=O)OC)C(=O)OCCOc1ccc(Oc2ccc(CN(Cc3ccccc3)c3cccc(NS(C)(=O)=O)c3C)cc2)cc1 (stereo not drawn) [Compound 9c] | 1900 | completely resistant | moderate to extensive hydrolysis | 
9 | COC(=O)NCCCC(Cc1cn(Cc2ccccc2)nn1)C(=O)OCCOc1ccc(Oc2ccc(CN(Cc3ccccc3)c3cccc(NS(C)(=O)=O)c3C)cc2)cc1 (stereo not drawn) [Compound 9g] |  | completely resistant | moderate to extensive hydrolysis | 
